In patent publication US20140371305A1, “Mupirocin Antibiotic Composition” (PROFESSIONAL COMPOUNDING CENTERS OF AMERICA, priority 2013, published 2014):

Columns and labels:
[1] = tested on: Pseudomonas aeruginosa; experiment: Minimum inhibitory concentration (MIC) test; assay type: cell-based; settings: mupirocin combined with micronized poloxamer composition 202 (poloxamer 188 and poloxamer 407)
Method: (§1) “Minimum Inhibitory Concentration (MIC)” may refer to the lowest concentration of an antimicrobial that may inhibit the visible growth of a microorganism after overnight incubation.
(§2) Moreover, micronized poloxamer composition 202 may enhance mupirocin's properties by lowering the minimum inhibitory concentration (MIC) to about […]. The MIC was tested against microorganisms such as Pseudomonas aeruginosa, and Methicillin Resistant Staphylococcus aureus, among others.

[2] = tested on: Methicillin Resistant Staphylococcus aureus; experiment: Minimum inhibitory concentration (MIC) test; assay type: cell-based; settings: mupirocin combined with micronized poloxamer composition 202 (poloxamer 188 and poloxamer 407)
Method: as §1, §2

Question: What does the source list for C/C(=C\C(=O)OCCCCCCCCC(=O)O)C[C@@H]1OC[C@H](C[C@@H]2O[C@H]2[C@@H](C)[C@H](C)O)[C@@H](O)[C@H]1O [mupirocin]?
Answer: minimum inhibitory concentration (MIC) [1]: about 1.7 g; minimum inhibitory concentration (MIC) [2]: about 1.7 g
